# In patent US20160129005A1, “ADENINE DERIVATIVES HAVING IMMUNOMODULATING ANTI-INFLAMMATORY AND ANALGESIC ACTIVITY” (MEDESTEA RESEARCH & PRODUCTION S.p.A., priority 2011, published 2016):
# Key:
# [1] = test system: C57BL/6 mice transplanted with BALB/c hearts; test: Murine heterotopic heart transplant model; assay type: in vivo, mouse; details: Rapamycin alone 0.1 mg/kg day 0 to day 10; n=5; Ctrl MST=7
# Procedure: The immunosuppressive potential of […] was tested on a heterotopic heart transplant model; hearts of BALB/c mice were transplanted into the abdominal cavity of C57BL/6 mice.
# The beats of the heart were measured, twice weekly, by palpation; stopping of beating was regarded as a sign of transplant rejection.
# Three different protocols were used for prolonging transplant survival times: the “short-term” protocol ([…] 9 mg/kg daily for 14 days), the “long-term” protocol ([…] 9 mg/kg every day until rejection), and the “Combo” protocol ([…] on alternate days: day 0, 2, 4, 6, 8, 10, 12, 14+Rapamycin 0.1 mg/kg from day 0 to day 10).
# In the acute heart transplant models, the hearts of BALB/c were transplanted into the peritoneal cavity of C57BL/6 mice. The control mice invariably reject the transplant in 10 days (Ctrl: MST=7 days, n=12), (FIG. 26). The “short-term” protocol permitted indefinite survival (100 days) in 10 mice out of 12 (n=12; p=0.0001 vs. Ctrl), (FIG. 26). Similarly, the “long-term” protocol permitted indefinite survival in 8 mice out of 10 (n=10; p=0.002 vs Ctrl), and prolonged survival in the remaining 2 (16 days and 25 days; p=0.002 vs. Ctrl), (FIG. 26).
# The histological sections of the hearts on day 7 of BALB/c mice, transplanted into a C57BL/6 host, and treated with the “short-term” protocol, were also analysed.
# Swiss CD1 mice = test: CFA thermal hyperalgesia, synergy with opioids
# Procedure: We compared the activity of […] with that of the opioids to study its analgesic effect.
# Mice of the Swiss CD1 type were given a single intraplantar injection of 30 microlitres of complete Freund adjuvant (CFA) in the right plantar pad. Intraperitoneal injection of […] and/or of morphine (morphine chlorhydrate, Molteni) was administered 24 hours after injection of CFA according to the following scheme:
# 1. […] 7.5 mg/kg; 2. […] 10 mg/kg; 3. […] 200 mg/kg; 4. […] 50 mg/kg; 5. Morphine 0.4 mg/kg; 6. Morphine 2.5 mg/kg; 7. Morphine 1 mg/kg; 8. Morphine 0.4 mg/kg; 9. Morphine 1 mg/kg+[…] 10 mg/kg; 10. Morphine 0.4 mg/kg+[…] 10 mg/kg; 11. Morphine 1 mg/kg+[…] 10 mg/kg; 12. Morphine 0.4 mg/kg+[…] 10 mg/kg; 13. Morphine 4 mg/kg.
# Groups 9-11 and 10-12 have the same doses respectively; they were repeated to confirm the results.
# Thermal hyperalgesia was assessed using the Ugo Basile apparatus (Comerio, Italy).
# The test was carried out before (baseline values) injection of CFA, after injection of CFA and 0.5, 1, 2, 3, 6 and 12 hours after injecting the drug in the inflamed pad.
SMILES,MST (mean survival time) [1],obsessive-compulsive disorders (behaviour) (Swiss CD1 mice; morphine 2.5 mg/kg or higher doses),activity on nociception (Swiss CD1 mice; morphine alone i.p. at the highest dose)
"CO[C@H]1C[C@@H]2CC[C@@H](C)[C@@](O)(O2)C(=O)C(=O)N2CCCC[C@H]2C(=O)O[C@H]([C@H](C)C[C@@H]2CC[C@@H](O)[C@H](OC)C2)CC(=O)[C@H](C)/C=C(\C)[C@@H](O)[C@@H](OC)C(=O)[C@H](C)C[C@H](C)/C=C/C=C/C=C/1C [Rapamycin, reference compound]",25 days,,
"CN1CC[C@]23c4c5ccc(O)c4O[C@H]2[C@@H](O)C=C[C@H]3[C@H]1C5 [morphine, morphine chlorhydrate, reference compound]",,displayed obsessive-compulsive disorders,anaesthetic-like
